How the values were obtained:
Test in all cases: pIC50, kinobeads binding competition
BUB1 = BUB1 (UniProt O43683)
In short: (§1)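 Fold changes relative to vehicle, from biological duplicates, were fitted with logistic dose-response models in the R drc package to give pIC50. These fold changes came from TMT10 LC-MS/MS quantification of digested Kinobeads-bound proteins. Compound was applied at nine concentrations (top 30 μM) either to live Jurkat cells in 1:4 steps for 60 min at 37 °C before lysis, or to Jurkat lysate or a 1:1:1:1 HEK293/K-562/HepG2/placenta lysate mix in 1:5 steps for 60 min at 4 °C.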

EPHB1 = biological target: T1, EPHB1 (UniProt P54762); details: cell material: Lysate mix
T1 sequence (whole entry): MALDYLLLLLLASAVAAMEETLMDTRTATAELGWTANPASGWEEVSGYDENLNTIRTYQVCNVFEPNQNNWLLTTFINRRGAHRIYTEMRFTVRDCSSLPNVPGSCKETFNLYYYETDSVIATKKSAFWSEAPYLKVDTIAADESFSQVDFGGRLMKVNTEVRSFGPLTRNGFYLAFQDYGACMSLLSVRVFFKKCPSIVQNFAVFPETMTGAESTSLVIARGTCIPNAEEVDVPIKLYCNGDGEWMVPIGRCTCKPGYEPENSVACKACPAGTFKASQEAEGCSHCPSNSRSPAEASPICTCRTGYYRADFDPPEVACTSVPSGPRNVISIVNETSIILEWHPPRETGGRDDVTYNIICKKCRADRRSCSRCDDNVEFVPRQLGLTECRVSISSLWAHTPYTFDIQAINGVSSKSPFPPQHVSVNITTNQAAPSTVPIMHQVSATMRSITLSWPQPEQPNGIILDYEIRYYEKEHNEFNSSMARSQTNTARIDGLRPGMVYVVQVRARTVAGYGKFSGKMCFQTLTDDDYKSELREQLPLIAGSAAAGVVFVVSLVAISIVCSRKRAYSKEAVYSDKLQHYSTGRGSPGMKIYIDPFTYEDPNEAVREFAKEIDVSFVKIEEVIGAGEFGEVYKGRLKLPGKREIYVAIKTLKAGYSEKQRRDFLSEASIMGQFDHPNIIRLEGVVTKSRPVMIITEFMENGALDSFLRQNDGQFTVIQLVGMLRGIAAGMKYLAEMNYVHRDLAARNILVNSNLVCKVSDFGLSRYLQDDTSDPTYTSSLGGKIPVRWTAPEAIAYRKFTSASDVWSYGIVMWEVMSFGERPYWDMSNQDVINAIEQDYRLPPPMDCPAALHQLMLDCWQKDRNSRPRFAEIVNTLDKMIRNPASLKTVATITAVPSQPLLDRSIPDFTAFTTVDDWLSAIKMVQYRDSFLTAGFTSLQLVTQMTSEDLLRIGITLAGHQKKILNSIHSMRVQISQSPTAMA
In short: as §1

EPHB2 = biological target: T2, EPHB2 (UniProt P29323)
T2 sequence (whole entry): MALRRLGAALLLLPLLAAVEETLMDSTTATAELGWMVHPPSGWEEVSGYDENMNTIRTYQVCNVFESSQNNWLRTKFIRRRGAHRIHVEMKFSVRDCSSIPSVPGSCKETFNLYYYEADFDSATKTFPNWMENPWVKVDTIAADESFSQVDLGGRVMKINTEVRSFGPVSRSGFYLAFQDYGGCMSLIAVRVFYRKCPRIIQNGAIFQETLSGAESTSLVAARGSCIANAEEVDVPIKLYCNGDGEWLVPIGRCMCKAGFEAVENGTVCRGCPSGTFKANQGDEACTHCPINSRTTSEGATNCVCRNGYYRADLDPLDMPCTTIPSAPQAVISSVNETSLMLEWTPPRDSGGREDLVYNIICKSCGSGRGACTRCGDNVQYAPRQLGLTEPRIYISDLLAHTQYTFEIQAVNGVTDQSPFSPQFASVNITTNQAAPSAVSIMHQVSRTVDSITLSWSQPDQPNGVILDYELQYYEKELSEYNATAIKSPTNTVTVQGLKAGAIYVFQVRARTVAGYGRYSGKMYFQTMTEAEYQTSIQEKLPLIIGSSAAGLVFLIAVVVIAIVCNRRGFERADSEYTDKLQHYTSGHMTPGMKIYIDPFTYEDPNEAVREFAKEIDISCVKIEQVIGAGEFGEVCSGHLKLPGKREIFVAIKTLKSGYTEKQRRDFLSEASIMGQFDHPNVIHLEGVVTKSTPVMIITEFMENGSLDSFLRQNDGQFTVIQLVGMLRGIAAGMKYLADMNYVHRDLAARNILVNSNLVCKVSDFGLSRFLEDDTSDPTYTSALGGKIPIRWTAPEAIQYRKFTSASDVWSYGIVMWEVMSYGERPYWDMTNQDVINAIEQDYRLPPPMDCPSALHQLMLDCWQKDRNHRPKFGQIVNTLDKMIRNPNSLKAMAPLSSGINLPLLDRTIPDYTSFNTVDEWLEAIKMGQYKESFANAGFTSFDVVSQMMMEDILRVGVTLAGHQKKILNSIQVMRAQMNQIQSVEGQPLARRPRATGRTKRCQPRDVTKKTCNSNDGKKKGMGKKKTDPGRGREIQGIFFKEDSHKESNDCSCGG
In short: as §1

RIPK2 = RIPK2 (UniProt O43353); details: cell material: Lysate mix
In short: as §1

ROCK2 = ROCK2 (UniProt O75116)
In short: as §1

SLK = SLK (UniProt Q9H2G2)
In short: as §1

STK39 = STK39 (UniProt Q9UEW8)
In short: as §1

SYK = SYK (UniProt P43405)
In short: as §1

UniProt P17252 = biological target: UniProt P17252
In short: as §1

UniProt P28482 = biological target: UniProt P28482
In short: as §1

UniProt P50613 = biological target: UniProt P50613
In short: as §1

UniProt Q13164 = biological target: UniProt Q13164
In short: as §1

UniProt Q15418 = biological target: UniProt Q15418
In short: as §1

UniProt Q16513 = biological target: UniProt Q16513
In short: as §1

UniProt Q9BUB5 = biological target: UniProt Q9BUB5
In short: as §1

WEE1 = WEE1 (UniProt P30291)
In short: as §1

Chain of RIPK2 (O43353 whole entry): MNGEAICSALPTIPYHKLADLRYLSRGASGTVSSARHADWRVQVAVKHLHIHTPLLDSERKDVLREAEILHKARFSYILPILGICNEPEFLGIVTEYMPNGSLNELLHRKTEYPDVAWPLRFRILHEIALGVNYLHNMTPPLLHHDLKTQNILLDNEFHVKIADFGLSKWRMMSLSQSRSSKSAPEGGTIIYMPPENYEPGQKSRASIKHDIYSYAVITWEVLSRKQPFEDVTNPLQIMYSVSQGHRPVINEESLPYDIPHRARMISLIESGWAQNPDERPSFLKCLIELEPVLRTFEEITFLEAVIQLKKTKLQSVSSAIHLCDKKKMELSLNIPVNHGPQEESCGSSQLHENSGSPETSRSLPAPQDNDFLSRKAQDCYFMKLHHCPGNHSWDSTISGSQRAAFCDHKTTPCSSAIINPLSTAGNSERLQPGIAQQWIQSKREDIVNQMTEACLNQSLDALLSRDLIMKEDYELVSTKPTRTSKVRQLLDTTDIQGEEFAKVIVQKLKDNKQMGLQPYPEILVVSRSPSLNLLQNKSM
Chain of WEE1 (P30291 whole entry, looked up): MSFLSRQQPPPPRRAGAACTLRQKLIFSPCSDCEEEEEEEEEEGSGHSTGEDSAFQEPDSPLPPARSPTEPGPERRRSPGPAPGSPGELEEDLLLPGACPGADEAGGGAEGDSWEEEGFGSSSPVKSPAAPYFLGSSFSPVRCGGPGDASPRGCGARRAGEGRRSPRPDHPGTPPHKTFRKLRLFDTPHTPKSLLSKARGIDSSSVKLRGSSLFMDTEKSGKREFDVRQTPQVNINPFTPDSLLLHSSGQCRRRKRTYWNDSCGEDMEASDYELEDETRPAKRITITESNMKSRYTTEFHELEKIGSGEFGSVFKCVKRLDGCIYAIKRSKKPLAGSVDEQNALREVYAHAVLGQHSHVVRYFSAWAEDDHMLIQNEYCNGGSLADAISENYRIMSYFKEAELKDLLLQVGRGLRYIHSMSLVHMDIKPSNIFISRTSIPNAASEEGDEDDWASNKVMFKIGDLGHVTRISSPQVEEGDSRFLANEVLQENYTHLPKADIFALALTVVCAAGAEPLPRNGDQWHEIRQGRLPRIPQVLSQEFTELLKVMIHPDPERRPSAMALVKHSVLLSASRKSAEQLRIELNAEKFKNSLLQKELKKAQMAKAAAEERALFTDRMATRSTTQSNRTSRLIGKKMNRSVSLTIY
Chain of SLK (Q9H2G2 whole entry, looked up): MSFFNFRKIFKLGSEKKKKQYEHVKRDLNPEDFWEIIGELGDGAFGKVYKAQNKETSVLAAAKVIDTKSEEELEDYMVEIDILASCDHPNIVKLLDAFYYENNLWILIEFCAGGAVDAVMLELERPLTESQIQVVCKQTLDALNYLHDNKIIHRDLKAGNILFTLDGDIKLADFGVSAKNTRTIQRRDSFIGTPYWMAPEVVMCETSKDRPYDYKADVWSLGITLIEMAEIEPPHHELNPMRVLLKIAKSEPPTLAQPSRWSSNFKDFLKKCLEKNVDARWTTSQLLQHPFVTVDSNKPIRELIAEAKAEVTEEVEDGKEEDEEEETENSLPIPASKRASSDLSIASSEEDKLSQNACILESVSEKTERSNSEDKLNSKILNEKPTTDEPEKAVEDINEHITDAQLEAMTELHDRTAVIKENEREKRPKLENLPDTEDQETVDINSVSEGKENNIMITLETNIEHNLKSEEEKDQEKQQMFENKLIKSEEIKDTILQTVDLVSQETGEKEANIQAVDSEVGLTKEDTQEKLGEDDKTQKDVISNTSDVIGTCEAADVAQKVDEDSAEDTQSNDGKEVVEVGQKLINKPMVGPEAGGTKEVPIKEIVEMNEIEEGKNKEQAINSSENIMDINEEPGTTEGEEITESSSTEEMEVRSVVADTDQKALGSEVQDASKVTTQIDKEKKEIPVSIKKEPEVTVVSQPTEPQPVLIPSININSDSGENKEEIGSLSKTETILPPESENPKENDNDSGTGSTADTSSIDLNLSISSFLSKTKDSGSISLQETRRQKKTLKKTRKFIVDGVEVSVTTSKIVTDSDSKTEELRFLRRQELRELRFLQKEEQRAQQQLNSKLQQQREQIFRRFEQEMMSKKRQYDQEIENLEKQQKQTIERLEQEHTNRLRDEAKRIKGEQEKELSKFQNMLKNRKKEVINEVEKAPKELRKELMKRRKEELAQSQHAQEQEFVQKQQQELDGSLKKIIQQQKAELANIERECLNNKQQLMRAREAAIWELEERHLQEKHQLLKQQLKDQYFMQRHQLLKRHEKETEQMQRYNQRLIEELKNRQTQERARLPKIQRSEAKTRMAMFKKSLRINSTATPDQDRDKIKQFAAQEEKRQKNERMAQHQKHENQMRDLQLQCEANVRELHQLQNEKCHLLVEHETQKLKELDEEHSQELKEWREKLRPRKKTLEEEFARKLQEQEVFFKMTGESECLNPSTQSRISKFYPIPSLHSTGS
Chain of UniProt Q9BUB5 (Q9BUB5 whole entry, looked up): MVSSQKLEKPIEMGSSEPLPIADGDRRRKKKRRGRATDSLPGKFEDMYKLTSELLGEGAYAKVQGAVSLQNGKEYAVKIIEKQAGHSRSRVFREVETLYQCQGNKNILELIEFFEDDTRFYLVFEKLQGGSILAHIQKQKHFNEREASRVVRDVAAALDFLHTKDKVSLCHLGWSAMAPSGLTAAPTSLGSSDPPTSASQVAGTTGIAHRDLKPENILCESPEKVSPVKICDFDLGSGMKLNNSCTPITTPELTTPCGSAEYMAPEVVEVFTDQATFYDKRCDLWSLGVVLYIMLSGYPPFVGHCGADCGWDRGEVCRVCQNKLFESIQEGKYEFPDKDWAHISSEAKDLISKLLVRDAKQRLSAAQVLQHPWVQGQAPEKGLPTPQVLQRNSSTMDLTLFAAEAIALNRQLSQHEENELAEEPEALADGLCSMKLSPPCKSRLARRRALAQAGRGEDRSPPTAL
Chain of UniProt P28482 (P28482 whole entry): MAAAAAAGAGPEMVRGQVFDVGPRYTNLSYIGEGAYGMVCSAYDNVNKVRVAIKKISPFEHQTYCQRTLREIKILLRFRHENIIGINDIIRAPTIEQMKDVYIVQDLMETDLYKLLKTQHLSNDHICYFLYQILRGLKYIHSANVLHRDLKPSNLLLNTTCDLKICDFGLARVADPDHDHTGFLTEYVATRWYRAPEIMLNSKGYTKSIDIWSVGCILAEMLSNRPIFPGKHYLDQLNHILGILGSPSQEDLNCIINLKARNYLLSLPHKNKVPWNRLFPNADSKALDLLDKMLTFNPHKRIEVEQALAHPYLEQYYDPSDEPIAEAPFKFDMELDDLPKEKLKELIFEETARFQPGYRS
Chain of ROCK2 (O75116 whole entry, looked up): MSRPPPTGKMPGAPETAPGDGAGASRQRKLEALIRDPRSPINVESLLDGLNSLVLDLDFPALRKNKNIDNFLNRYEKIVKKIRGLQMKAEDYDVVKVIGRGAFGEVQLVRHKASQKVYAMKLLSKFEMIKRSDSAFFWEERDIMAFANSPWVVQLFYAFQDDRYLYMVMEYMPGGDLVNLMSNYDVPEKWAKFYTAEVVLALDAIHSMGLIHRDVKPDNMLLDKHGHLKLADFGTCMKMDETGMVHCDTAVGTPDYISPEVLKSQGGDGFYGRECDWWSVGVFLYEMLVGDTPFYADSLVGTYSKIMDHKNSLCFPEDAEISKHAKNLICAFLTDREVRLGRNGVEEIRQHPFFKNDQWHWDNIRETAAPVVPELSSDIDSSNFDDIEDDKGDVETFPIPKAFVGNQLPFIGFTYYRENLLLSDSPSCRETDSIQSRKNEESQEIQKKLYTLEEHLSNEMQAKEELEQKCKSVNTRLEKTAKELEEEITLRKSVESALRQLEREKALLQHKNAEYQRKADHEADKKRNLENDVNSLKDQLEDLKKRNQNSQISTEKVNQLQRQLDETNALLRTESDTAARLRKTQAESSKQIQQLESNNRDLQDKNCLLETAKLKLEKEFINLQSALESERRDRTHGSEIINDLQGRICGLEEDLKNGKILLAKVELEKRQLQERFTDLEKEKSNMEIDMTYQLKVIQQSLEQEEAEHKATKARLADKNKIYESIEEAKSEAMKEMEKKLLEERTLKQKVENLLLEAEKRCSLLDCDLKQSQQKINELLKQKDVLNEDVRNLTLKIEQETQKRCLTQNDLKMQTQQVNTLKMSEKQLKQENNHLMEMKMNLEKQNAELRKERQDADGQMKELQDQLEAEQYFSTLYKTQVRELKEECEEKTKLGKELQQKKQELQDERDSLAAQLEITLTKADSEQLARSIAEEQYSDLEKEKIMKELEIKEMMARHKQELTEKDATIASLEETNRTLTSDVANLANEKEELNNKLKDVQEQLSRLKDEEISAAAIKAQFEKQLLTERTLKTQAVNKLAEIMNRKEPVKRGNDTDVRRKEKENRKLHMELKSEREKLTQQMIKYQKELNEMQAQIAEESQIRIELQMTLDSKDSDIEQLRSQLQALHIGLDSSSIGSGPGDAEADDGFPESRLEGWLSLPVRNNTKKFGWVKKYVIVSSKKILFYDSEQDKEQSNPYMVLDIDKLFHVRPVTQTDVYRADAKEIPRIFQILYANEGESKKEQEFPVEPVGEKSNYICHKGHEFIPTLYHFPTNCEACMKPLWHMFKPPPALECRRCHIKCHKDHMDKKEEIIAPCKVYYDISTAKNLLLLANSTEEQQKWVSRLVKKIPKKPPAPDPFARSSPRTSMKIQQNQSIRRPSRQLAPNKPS
Chain of UniProt P50613 (P50613 whole entry): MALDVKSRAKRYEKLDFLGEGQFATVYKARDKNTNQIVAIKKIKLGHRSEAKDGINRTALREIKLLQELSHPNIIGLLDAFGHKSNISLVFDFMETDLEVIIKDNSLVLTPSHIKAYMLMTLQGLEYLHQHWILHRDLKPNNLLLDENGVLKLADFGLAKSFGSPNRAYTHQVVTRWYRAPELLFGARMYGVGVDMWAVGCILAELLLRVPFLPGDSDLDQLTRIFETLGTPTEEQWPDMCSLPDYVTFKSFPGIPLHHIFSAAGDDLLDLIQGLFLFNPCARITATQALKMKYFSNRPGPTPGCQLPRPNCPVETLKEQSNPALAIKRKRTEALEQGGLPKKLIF

`Cc1cc(Nc2cc(C(=O)NCCNC(=O)OC3CC/C=C/CCC3)nc(N3CCN(Cc4ccc(S(=O)(=O)F)cc4)CC3)n2)n[nH]1` (centres undefined) showed a pIC50 (BUB1; cell material: Lysate mix) of less than 4.52, a pIC50 (EPHB1) of less than 4.52 and a pIC50 (EPHB2; cell material: Lysate mix) of less than 4.52. The pIC50 (RIPK2) was less than 4.52, the pIC50 (ROCK2; cell material: Lysate mix) was less than 4.52 and the pIC50 (SLK; cell material: Lysate mix) was less than 4.52. For the same compound, the pIC50 (STK39; cell material: Lysate mix) was less than 4.52, the pIC50 (SYK; cell material: Lysate mix) was less than 4.52 and the pIC50 (UniProt P17252; cell material: Lysate mix) was less than 4.52. It also gave a pIC50 (UniProt P28482; cell material: Lysate mix) of less than 4.52, a pIC50 (UniProt P50613; cell material: Lysate mix) of less than 4.52 and a pIC50 (UniProt Q13164; cell material: Lysate mix) of less than 4.52. For the same compound, the pIC50 (UniProt Q15418; cell material: Lysate mix) was less than 4.52, the pIC50 (UniProt Q16513; cell material: Lysate mix) was less than 4.52 and the pIC50 (UniProt Q9BUB5; cell material: Lysate mix) was less than 4.52. For the same compound, the pIC50 (WEE1; cell material: Lysate mix) was less than 4.52.
Work on `CCNC(=O)c1cc(Nc2cc(C)[nH]n2)nc(N2CCN(Cc3ccc(S(=O)(=O)F)cc3)CC2)n1` yielded a pIC50 (BUB1; cell material: Lysate mix) of less than 4.52, a pIC50 (EPHB1) of less than 4.52 and a pIC50 (EPHB2; cell material: Lysate mix) of less than 4.52. It also gave a pIC50 (RIPK2) of less than 4.52, a pIC50 (ROCK2; cell material: Lysate mix) of less than 4.52 and a pIC50 (SLK; cell material: Lysate mix) of less than 4.52. It also gave a pIC50 (STK39; cell material: Lysate mix) of 4.66, a pIC50 (SYK; cell material: Lysate mix) of 5.57 and a pIC50 (UniProt P17252; cell material: Lysate mix) of less than 4.52. It also gave a pIC50 (UniProt P28482; cell material: Lysate mix) of less than 4.52, a pIC50 (UniProt P50613; cell material: Lysate mix) of 5 and a pIC50 (UniProt Q13164; cell material: Lysate mix) of 4.6. It also gave a pIC50 (UniProt Q15418; cell material: Lysate mix) of 5.04, a pIC50 (UniProt Q16513; cell material: Lysate mix) of less than 4.52 and a pIC50 (UniProt Q9BUB5; cell material: Lysate mix) of less than 4.52. It also gave a pIC50 (WEE1; cell material: Lysate mix) of less than 4.52.
Compound `C#CCNC(=O)c1cc(Nc2cc(C3CC3)[nH]n2)nc(N2CCN(Cc3ccc(S(=O)(=O)F)cc3)CC2)n1` has a pIC50 (BUB1; cell material: Jurkat cells) of 5, a pIC50 (BUB1; cell material: Jurkat lysate) of less than 4.52 and a pIC50 (BUB1; cell material: Lysate mix) of less than 4.52. It also gave a pIC50 (EPHB1) of less than 4.52, a pIC50 (EPHB2; cell material: Jurkat cells) of less than 4.52 and a pIC50 (EPHB2; cell material: Jurkat lysate) of less than 4.52. It also gave a pIC50 (EPHB2; cell material: Lysate mix) of less than 4.52, a pIC50 (RIPK2) of less than 4.52 and a pIC50 (ROCK2; cell material: Jurkat cells) of 4.76. For the same compound, the pIC50 (ROCK2; cell material: Lysate mix) was less than 4.52, the pIC50 (SLK; cell material: Jurkat cells) was 5.46 and the pIC50 (SLK; cell material: Jurkat lysate) was less than 4.52. For the same compound, the pIC50 (SLK; cell material: Lysate mix) was less than 4.52, the pIC50 (STK39; cell material: Jurkat cells) was 6.04 and the pIC50 (STK39; cell material: Jurkat lysate) was 5.28. For the same compound, the pIC50 (STK39; cell material: Lysate mix) was 5.92, the pIC50 (SYK; cell material: Jurkat lysate) was 5.64 and the pIC50 (SYK; cell material: Lysate mix) was 6.28. For the same compound, the pIC50 (UniProt P17252; cell material: Jurkat cells) was 5.48, the pIC50 (UniProt P17252; cell material: Jurkat lysate) was less than 4.52 and the pIC50 (UniProt P17252; cell material: Lysate mix) was less than 4.52. The pIC50 (UniProt P28482; cell material: Jurkat cells) was 5.48, the pIC50 (UniProt P28482; cell material: Jurkat lysate) was less than 4.52 and the pIC50 (UniProt P28482; cell material: Lysate mix) was less than 4.52. It also gave a pIC50 (UniProt P50613; cell material: Jurkat cells) of 6.47, a pIC50 (UniProt P50613; cell material: Jurkat lysate) of 5.78 and a pIC50 (UniProt P50613; cell material: Lysate mix) of 6.35. The pIC50 (UniProt Q13164; cell material: Jurkat cells) was 5.69, the pIC50 (UniProt Q13164; cell material: Jurkat lysate) was less than 4.52 and the pIC50 (UniProt Q13164; cell material: Lysate mix) was 5.14. The pIC50 (UniProt Q15418; cell material: Jurkat cells) was 5.98, the pIC50 (UniProt Q15418; cell material: Jurkat lysate) was less than 4.52 and the pIC50 (UniProt Q15418; cell material: Lysate mix) was 5.49. For the same compound, the pIC50 (UniProt Q16513; cell material: Jurkat cells) was 5.32, the pIC50 (UniProt Q16513; cell material: Jurkat lysate) was less than 4.52 and the pIC50 (UniProt Q16513; cell material: Lysate mix) was less than 4.52. The pIC50 (UniProt Q9BUB5; cell material: Jurkat cells) was 5.31, the pIC50 (UniProt Q9BUB5; cell material: Jurkat lysate) was less than 4.52 and the pIC50 (UniProt Q9BUB5; cell material: Lysate mix) was less than 4.52. The pIC50 (WEE1; cell material: Jurkat cells) was 5.62, the pIC50 (WEE1; cell material: Jurkat lysate) was less than 4.52 and the pIC50 (WEE1; cell material: Lysate mix) was less than 4.52.

From the supplement of paper PMC12076712
